Results on four molecules are retold here after ChEMBL document CHEMBL1158218, “Structure and Plant Growth Regulatory Activity of New Diterpenes from Pterodon polygalaeflorus” (1996).

Activity calls are given as the source filed them. The rule behind the calls is not given here.

Assay [1] relates to Sorghum bicolor. Nature of the assay: Inhibition of radicular growth in Sorghum bicolor at 1000 ppm after 3 days. To be noted: 72 h. In kind it is functional.
Assay [2] has as its system Cucumis sativus. As to the kind of experiment: Stimulation of radicular growth in Cucumis sativus at 1000 ppm after 3 days. The assay is classed as functional, organism-based.
The subject of assay [3] is Cucumis sativus. Nature of the assay: Stimulation of radicular growth in Cucumis sativus at 100 ppm after 3 days. The assay is classed as functional, organism-based.
Assay [4] concerns Cucumis sativus. Nature of the assay: Inhibition of radicular growth in Cucumis sativus at 1000 ppm after 3 days. In kind it is functional, organism-based.
In assay [5] the test system is Sorghum bicolor. Nature of the assay: Inhibition of radicular growth in Sorghum bicolor at 100 ppm after 3 days. The assay is classed as functional. To be noted: 72 h.

Consider `CC1(C)CCC[C@]2(C)[C@H]3Cc4occc4[C@@](C)(O)[C@@H]3[C@@H](O)[C@H](O)[C@@H]12`, for which at 1000 ppm the inhibition in the assay with Sorghum bicolor [1] was 13%. In the assay on Cucumis sativus [2], the result was inactive. For the same molecule, in the assay with Cucumis sativus [3], the outcome was Active.

Consider `C[C@]1(CO)CCC[C@]2(C)[C@H]3Cc4occc4[C@@](C)(O)[C@@H]3[C@@H](O)[C@H](O)[C@@H]12`, for which the inhibition (in general, the share of the control response that was lost under treatment) at 1000 ppm in the assay with Sorghum bicolor [1] worked out at 13%. Moreover, the result in the assay with Cucumis sativus [3] and with Cucumis sativus [4] was Active.

`CC1(C)CCC[C@]2(C)[C@H]3Cc4occc4[C@H]4C(=O)O[C@@H]([C@H](O)[C@@H]12)[C@@H]43` yielded an inhibition at 1000 ppm with Sorghum bicolor [1] of 13%. Moreover, in the assay with Cucumis sativus [2], the outcome was inactive. The outcome in the assay on Cucumis sativus [3] was Active.

Consider `CC1(C)CCC[C@]2(C)[C@H]3Cc4occc4[C@@H](C(=O)O)[C@@H]3[C@@H](O)[C@H](O)[C@@H]12`, for which at 100 ppm the inhibition in the assay on Sorghum bicolor [5] was 39%. In the assay with Sorghum bicolor [1], this molecule showed an inhibition at 1000 ppm of 65%. For the same molecule, the outcome in the assay on Cucumis sativus [3] and with Cucumis sativus [4] was Active.
